According to article PMC7217150, “Synthesis, Modification, and Biological Evaluation of a Library of Novel Water‐Soluble Thiopyridone‐Based Organometallic Complexes and Their Unexpected (Biological) Behavior” (Chemistry (Weinheim an Der Bergstrasse, Germany), 2020):
Like-named read-outs stand apart in the source and are kept apart here.

Key:
SW480 [1] = conditions: SW480, MTT assay, 96 h; cited from earlier work
A549 [2] = conditions: A549, MTT assay, 96 h; cited from earlier work
CH1/PA‐1 [3] = conditions: CH1/PA‐1, MTT assay, 96 h; cited from earlier work
[4] = pH 7.2
Protocol: Stock solutions containing the desired complex in DMSO (5 mM) were diluted with phosphate buffer (pH 7.2) to a final concentration of […] compound in 1 % DMSO/20 mM buffer and directly analyzed by four different isocratic UHPLC runs (Δ=5 %). The lipophilicity parameters logkw and lipophilicity indices φ0 were calculated according to literature.7, 37

HCT‐116 = HCT‐116 multicellular spheroids, 96 h drug exposure
Protocol: (§1) A549, CH1/PA‐1 and SW480 cells were grown in MEM supplemented with 10 % fetal calf serum (FCS; from Biowest), 1 mM sodium pyruvate, 4 mM L‐glutamine and 1 % v/v nonessential amino acids (from 100×solution) and L‐glutamine. HCT‐116 cells were maintained in McCoy's 5a medium supplemented with 10 % FCS and L‐glutamine. Adherent monolayer cultures were grown in 75 cm^2 flasks. For spheroid culture, A549, CH1/PA‐1 and HCT‐116 cells were harvested from culture flasks by trypsinization, resuspended in their respective supplemented medium and seeded in ultra‐low attachment round‐bottom 96‐well plates (Corning Costar) at a density of 500 viable cells per well. Plates were incubated for 96 h to allow spheroid formation prior to use for the tests. All cultures were incubated in a humidified incubator at 37 °C with 5 % CO2.
(§2) Cytotoxicity in multicellular spheroids was determined by the fluorimetric resazurin assay. […] After incubation for 96 h, 20 μL of a 440 μM resazurin sodium salt solution in PBS were added to each well, and the plates were incubated for further 16 h. Fluorescence was measured with a Synergy HT reader (BioTek) with an excitation wavelength of 530 nm and emission wavelength of 590 nm. For both assays, at least three independent experiments (or two in case of poor activity) were performed, each with triplicates per concentration level, and the 50 % inhibitory concentrations (IC50) relative to untreated controls were interpolated from concentration‐effect curves.

A549 [5] = conditions: A549 multicellular spheroids, 96 h drug exposure
Protocol: as §1, §2

CH1/PA‐1 [6] = conditions: CH1/PA‐1 multicellular spheroids, 96 h drug exposure
Protocol: as §1, §2

[7] = tested on: human cancer cell lines CH1/PA‐1, SW480, A549; conditions: tested cancer cell lines
Protocol: Cytotoxicity of the compounds in monolayer cultures was determined by the colorimetric MTT assay (MTT=3‐(4,5‐dimethyl‐2‐thiazolyl)‐2,5‐diphenyl‐2H‐tetrazolium bromide). 1×10^3 CH1/PA‐1, 2×10^3 SW480 and 3×10^3 A549 cells were seeded in 100 μL supplemented MEM per well into 96‐well flat‐bottom microculture plates. […] After 96 h, the drug‐containing medium was replaced with 100 μL of RPMI 1640/MTT mixture [6 parts of RPMI 1640 medium (supplemented with 10 % heat‐inactivated fetal bovine serum and 4 mM L‐glutamine), 1 part of MTT solution in phosphate‐buffered saline (5 mg mL^−1)]. After incubation for 4 h, the mixture was replaced with 150 μL DMSO per well to dissolve the formazan product formed by viable cells. Optical densities at 550 nm (and at a reference wavelength of 690 nm) were measured with a microplate reader (ELx808, Bio‐Tek).

SW480 [8] = assay: Cell cycle distribution, flow cytometry with propidium iodide; assay type: cell-based, human; conditions: for Cell cycle distribution G1, % / Cell cycle distribution G2/M, % / Cell cycle distribution S, %: 24 h, mean ± SD; for Relative change in cell cycle distribution G1, % / Relative change in cell cycle distribution G2/M, % / Relative change in cell cycle distribution S, %: difference to untreated control
How it was run: (§3)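 CH1/PA-1 and SW480 cells were allowed to attach for 24 h, then exposed continuously to compounds for 24 h at 37 °C. Nuclei were stained overnight at 4 °C with propidium iodide (50 μg mL^−1) in Triton/citrate buffer. 5×10^3 cells were analysed by flow cytometry, with G1/S/G2/M fractions fitted by the Watson Pragmatic model.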

CH1/PA‐1 [9] = assay: as above; assay type: cell-based, human; conditions: for Cell cycle distribution G1, % / Cell cycle distribution G2/M, % / Cell cycle distribution S, %: 24 h, mean ± SD; for Relative change in cell cycle distribution G1, % / Relative change in cell cycle distribution G2/M, % / Relative change in cell cycle distribution S, %: difference to untreated control; for decrease in G1 phase: CH1/PA‐1 cells
How it was run: as §3

SW480 [10] = assay: MTT cytotoxicity assay, monolayer culture; assay type: cell-based, human
A549 [11] = assay: MTT cytotoxicity assay, monolayer culture; assay type: cell-based, human; conditions: exposure time 96 h, means ± SDs
CH1/PA‐1 [12] = assay: MTT cytotoxicity assay, monolayer culture; assay type: cell-based, human; conditions: CH1/PA‐1, MTT assay, exposure time 96 h, means ± SDs
[13] = UV/Vis stability in aqueous solution; assay type: physicochemical; conditions: in PBS, rank among osmium complexes
Protocol: In order to investigate complex stabilities, UV/Vis spectrophotometry was conducted for all complexes. […] This process is fastest for complex 4 b* followed by complexes 4 a* and finally 4 c* in PBS. Decomposition of the osmium compounds was slightly slower in pure water (Figure 5).
UV/Vis spectra were recorded using a Hewlett Packard 8452A diode‐array spectrophotometer between 200–800 nm. The path length (l) was either 1 or 2 cm. UV/Vis spectra were recorded to confirm complex stability in aqueous systems and over a pH range 5.8–7.9.

[14] = SW480, MTT assay, exposure time 96 h, means ± SDs

[Cl][Ru-]([Cl])([Cl])[Cl].[Na+].c1ccc2[nH]ncc2c1.c1ccc2[nH]ncc2c1 [BOLD‐100]
IC50 (SW480 [1]): 62 ± 9 µM | IC50 (A549 [2]): 156 ± 11 µM | IC50 (CH1/PA‐1 [3]): 50 ± 6 µM

Cc1c([O-])c(=S)ccn1Cc1ccccc1.Cc1ccc(C(C)C)cc1.[Cl-].[Ru+2] [Compound 3 c, Chlorido[1‐benzyl‐2‐methyl‐3‐(oxo‐κO)‐pyridine‐4(1H)‐thionato‐κS](η^6‐p‐cymene)ruthenium(II)]
φ0 (chromatographic lipophilicity index) [4]: 6.04 | IC50 (HCT‐116): 211 ± 28 µM | IC50 (A549 [5]): 287 ± 3 µM | IC50 (CH1/PA‐1 [6]): 242 ± 11 µM | IC50 values, in words [7]: low micromolar range | Cell cycle distribution G1, % (SW480 [8]; SW480, 2.5 µM): 45 ± 3% | Cell cycle distribution G2/M, % (SW480 [8]; SW480, 2.5 µM): 17 ± 4% | Cell cycle distribution S, % (SW480 [8]; SW480, 2.5 µM): 38 ± 6% | Relative change in cell cycle distribution G1, % (SW480 [8]; SW480, 2.5 µM): -3% | Relative change in cell cycle distribution G2/M, % (SW480 [8]; SW480, 2.5 µM): -2% | Relative change in cell cycle distribution S, % (SW480 [8]; SW480, 2.5 µM): 5% | Cell cycle distribution G1, % (SW480 [8]; SW480, 5 µM): 44 ± 2% | Cell cycle distribution G2/M, % (SW480 [8]; SW480, 5 µM): 20 ± 3% | Cell cycle distribution S, % (SW480 [8]; SW480, 5 µM): 36 ± 0% | Relative change in cell cycle distribution G1, % (SW480 [8]; SW480, 5 µM): -4% | Relative change in cell cycle distribution G2/M, % (SW480 [8]; SW480, 5 µM): 1% | Relative change in cell cycle distribution S, % (SW480 [8]; SW480, 5 µM): 3% | Cell cycle distribution G1, % (SW480 [8]; SW480, 10 µM): 48 ± 7% | Cell cycle distribution G2/M, % (SW480 [8]; SW480, 10 µM): 21 ± 4% | Cell cycle distribution S, % (SW480 [8]; SW480, 10 µM): 32 ± 7% | Relative change in cell cycle distribution G1, % (SW480 [8]; SW480, 10 µM): 0% | Relative change in cell cycle distribution G2/M, % (SW480 [8]; SW480, 10 µM): 2% | Relative change in cell cycle distribution S, % (SW480 [8]; SW480, 10 µM): -1% | decrease in G1 phase (SW480 [8]; SW480 cells, at applicable concentrations): < 9% | Cell cycle distribution G1, % (CH1/PA‐1 [9]; CH1/PA-1, 2.5 µM): 30 ± 1% | Cell cycle distribution G2/M, % (CH1/PA‐1 [9]; CH1/PA-1, 2.5 µM): 23 ± 6% | Cell cycle distribution S, % (CH1/PA‐1 [9]; CH1/PA-1, 2.5 µM): 47 ± 8% | Relative change in cell cycle distribution G1, % (CH1/PA‐1 [9]; CH1/PA-1, 2.5 µM): -10% | Relative change in cell cycle distribution G2/M, % (CH1/PA‐1 [9]; CH1/PA-1, 2.5 µM): -1% | Relative change in cell cycle distribution S, % (CH1/PA‐1 [9]; CH1/PA-1, 2.5 µM): 11% | Cell cycle distribution G1, % (CH1/PA‐1 [9]; CH1/PA-1, 5 µM): 27 ± 3% | Cell cycle distribution G2/M, % (CH1/PA‐1 [9]; CH1/PA-1, 5 µM): 30 ± 3% | Cell cycle distribution S, % (CH1/PA‐1 [9]; CH1/PA-1, 5 µM): 43 ± 3% | Relative change in cell cycle distribution G1, % (CH1/PA‐1 [9]; CH1/PA-1, 5 µM): -13% | Relative change in cell cycle distribution G2/M, % (CH1/PA‐1 [9]; CH1/PA-1, 5 µM): 6% | Relative change in cell cycle distribution S, % (CH1/PA‐1 [9]; CH1/PA-1, 5 µM): 7% | Cell cycle distribution G1, % (CH1/PA‐1 [9]; CH1/PA-1, 10 µM): 24 ± 6% | Cell cycle distribution G2/M, % (CH1/PA‐1 [9]; CH1/PA-1, 10 µM): 30 ± 7% | Cell cycle distribution S, % (CH1/PA‐1 [9]; CH1/PA-1, 10 µM): 47 ± 4% | Relative change in cell cycle distribution G1, % (CH1/PA‐1 [9]; CH1/PA-1, 10 µM): -16% | Relative change in cell cycle distribution G2/M, % (CH1/PA‐1 [9]; CH1/PA-1, 10 µM): 6% | Relative change in cell cycle distribution S, % (CH1/PA‐1 [9]; CH1/PA-1, 10 µM): 11% | decrease in G1 phase (CH1/PA‐1 [9]; 2.5 μM): 10% | decrease in G1 phase (CH1/PA‐1 [9]; 10 μM): about 16% | intracellular accumulation relative to 3 a, in words (SW480 cells): seven times as high | Cellular accumulation (SW480 cells; ICP‐MS, 2 h exposure, 50 μM): 147±54 fg/cell | IC50 (SW480 [10]; [14]): 3.1 ± 0.2 µM | IC50 (SW480 [10]; SW480, as listed in Table 3): 3.06 ± 0.2 µM | IC50 (A549 [11]): 1.3 ± 0.1 µM | IC50 (CH1/PA‐1 [12]): 1.04 ± 0.03 µM

Cc1c([O-])c(=S)ccn1-c1ccccc1.Cc1ccc(C(C)C)cc1.[Cl-].[Os+2] [Compound 4 b, Chlorido[2‐methyl‐3‐(oxo‐κO)‐1‐phenylpyridine‐4(1H)‐thionato‐κS](η^6‐p‐cymene)osmium(II)]
IC50 (SW480 [10]; [14]): 5.8 ± 0.3 µM | IC50 (A549 [11]): 2.2 ± 1.1 µM | IC50 (CH1/PA‐1 [12]): 1.13 ± 0.03 µM | decomposition speed by UV/Vis [13]: fastest
